Source: patent US11457624B2, “Adjuvant compositions for plant treatment chemicals” (CORBET SCIENTIFIC, LLC, priority 2016, dated 2022)

Key:
[1] = test system: woody shrubs and mixed grasses; conditions: general statement, no source given; cited from earlier work
[2] = test system: Capsicum annuum Capistrano pepper plants; assay: Pepper harvest data, field trial; format: in vivo
Procedure: (§1) Field studies were conducted at the University of Florida, Southwest Florida Research and Education Center, Immokalee, Fla. For pepper trials, average monthly high and low temperatures were 98° F. and 70° F. in month one; 94° F. and 63° F. in month two; and 94° F. and 51° F. in month three; rainfall totaled 11.02, 0.95, and 2.41 inches for the same monthly periods, respectively. For squash trials, average monthly high and low temperatures were 93° F. and 45° F. in month one; 96° F. and 55° F. in month two; and 96° F. and 55° F. in month three; rainfall totaled 2.00, 3.35, and 5.59 inches for the same monthly periods, respectively.
(§2) In all trials, seedlings were transplanted into Immokalee fine sand on day 0. Treatments were arranged in a complete randomized block treatment design with four replicates. For pepper trials, ‘Capistrano’ seedlings were arranged in plots comprising 10 plants in a single row spaced 10 inches apart within a 36 inch wide row with 5 feet between each plot and 12 feet center to center between rows. For squash trials, four week old ‘Dixie’ plants were arranged in plots comprising eight plants spaced 3 feet apart with a 27 foot row and with 10 feet between each plot.
(§3) Each treatment formulation was spray applied. For pepper trials, treatment formulations were applied using a backpack CO2 sprayer at 40 psi with a single hollow-cone nozzle at 30 gal/A. Silicon was applied as sodium metasilicate nonahydrate (Na2SiO3.9H2O). For squash trials, treatment formulations were applied with a high clearance sprayer 2 mph and at 200 psi. A double drop boom equipped with six nozzles delivered a spray volume of 90 gal/A for tomato plants or 80 gal/A for squash plants.
(§4) For each trial, disease severity was assessed by visually estimating the percentage of foliage with symptoms of disease. For pepper trials, plants were examined for symptoms of bacterial spot. For squash trials, plants were examined for powdery mildew. The area under the disease progress curve (AUDPC) was calculated from disease severity ratings. In some trials, fruit was harvested and evaluated for the amount of marketable fruit produced per plot. Data were analyzed within the statistical program of ARM 9.1 (pepper trials) or ARM 9.0 (tomato and squash trials) by ANOVA and means separated by LSD.
Fruit was harvested on days 61 and 83.

[3] = test system: bacterial spot (Xanthomonas euvesicatoria) on pepper; assay: Bacterial spot on pepper, field trial (disease severity, AUDPC); format: in vivo
Procedure: as §1, §2, §3
For pepper trials, a suspension of inoculum of bacterial spot containing strains of several races was applied at day 22 and new inoculum was introduced periodically throughout the remainder of the trial.
as §4
Transplanted Capsicum annuum ‘Capistrano’ pepper seedlings were grouped into one of six treatment groups. Group one was an untreated control. The remaining five groups were spray treated with formulations that differed in their chemical compositions (Table 7).
plants on days 14, 21, 28, 35, 42, 49, 56, 64, 71, 77, and 84. Plants were inoculated with a bacterial suspension (Xanthomonas euvesicatoria) on day 22 and periodically throughout the remainder of the trial. […]

[4] = sprays A-K, rates as in Table 7

Structure (SMILES) | time normally required to begin to see an effect on grassy plants [1] | Marketable Fruit in Pound per Plot ([2]; Day 61) [a Pound per Plot] | Number of Marketable Fruit per Plot ([2]; Day 61) [a per Plot] | Marketable Number of Fruit per Plot ([2]; Day 83) [a per Plot] | Marketable fruit weight per plot ([2]; Day 83) [a Pound per Plot] | Non-Marketable Fruit in Pound per Plot ([2]; Day 83) [a Pound per Plot] | Non-Marketable Fruit per Plot ([2]; Day 83) [ab per Plot] | AUDPC (area under the disease progress curve) ([3]; calculated from disease severity ratings) [ab] | Disease Severity Day 41 ([3]; sprays A-K (Day 14-84), rates as in Table 7, inoculated day 22) | Disease Severity Day 47 [3, 4] | Disease Severity Day 58 [3, 4] | Disease Severity Day 61 [3, 4] | Disease Severity Day 71 [3, 4]
CC(C)C1(C)N=C(c2ncccc2C(=O)O)NC1=O (stereo not shown) [Imazapyr] | 2-5 months | – | – | – | – | – | – | – | – | – | – | – | –
O.O.O.O.O.O.O.O.O.O=[Si]([O-])[O-].[Na+].[Na+] [Silicon, sodium metasilicate nonahydrate] | – | 2.9 | 12 | 26.3 | 7.38 | 0.35 | 1 | 518.42 | 10.3 a percentage of symptomatic foliage | 21.5 a percentage of symptomatic foliage | 21.3 ab percentage of symptomatic foliage | 15 ab percentage of symptomatic foliage | 22.5 ab percentage of symptomatic foliage
